Experimental data taken from publication PMC9733060, “Novel alendronate-CGS21680 conjugate reduces bone resorption and induces new bone formation in post-menopausal osteoporosis and inflammatory osteolysis mouse models” (Arthritis Research & Therapy, 2022).
Where two headings read alike, the source gives them in different places. Marks after values point to notes of the source that are not given here.

Assays:
[1] = test system: ovariectomy-induced osteoporotic mice; assay type: in vivo; conditions: μCT, mean ± SEM, 10 mg/kg weekly IP, 9 weeks
[2] = test system: human primary osteoclasts; experiment: human primary osteoclast differentiation (RANKL, TRAP staining); assay type: cell-based; conditions: 0.001-10 μM, 7 days, 30 ng/mL RANKL
Protocol: Human bone marrow was obtained from 4 OA patients who underwent hip replacement surgery and all protocols were approved by the NYU School of Medicine’s IRB. Precursor cells were flushed out from femoral head with DMEM media with 10% fetal bovine serum (FBS), and 100 U/ml of penicillin and streptomycin (Lonza, Belgium) in sterile conditions and incubated for 48h non-adherent cells were collected and differentiated to osteoclasts and adherents cell were differentiated to osteoblasts as previously described.
Osteoclast differentiation was assessed by TRAP staining by incubating PFA fixed samples with TRAP buffer (0.1M acetate buffer, 0.3M sodium tartrate, 10mg/ml Naphthol AS-MX phosphate, 0.1% Triton X-100, 0.3mg/ml Fast Red Violet LB (Sigma-Aldrich, St. Louis, MO, USA)) for 10 min. Images were taken in a Leica (Morrisville, NC, USA) inverted microscope.

[3] = cited from earlier work
[4] = test system: UHMWPE-induced osteolytic mice (WT); experiment: UHMWPE wear particle-induced osteolysis (OL) in WT mice calvaria; assay type: in vivo, mouse; conditions: doses <10mg/kg/week, data not shown
[5] = test system: human primary osteoclasts; parameters: method as in PMID 23647065, PMID 25573752; conditions: previously demonstrated; cited from earlier work

NCCCC(O)(P(=O)(O)O)P(=O)(O)O [Alendronate, alendronic acid]
BS/BV ([1]; L5 vertebra trabecular bone): 71.26 ± 2.80* 1/mm
BV/TV ([1]; L5 vertebra trabecular bone): 12.34 ± 0.74 %
Tb.N ([1]; L5 vertebra trabecular bone): 2.60 ± 0.21 * 1/mm
Tb.Pf ([1]; L5 vertebra trabecular bone): 13.73 ± 1.23 # 1/mm
Tb.Sp ([1]; L5 vertebra trabecular bone): 0.298 ± 0.012 μm
Tb.Th ([1]; L5 vertebra trabecular bone): 0.047 ± 0.002 μm
BV ([1]; femur cortical bone): 0.442 ± 0.014 * mm^3
BV/TV ([1]; femur cortical bone): 44.50 ± 1.03
TV ([1]; femur cortical bone): 0.994 ± 0.042 mm^3
BS/BV ([1]; femur trabecular bone): 89.18 ± 4.61 1/mm
BV/TV ([1]; femur trabecular bone): 0.771 ± 0.210 %
Tb.N ([1]; femur trabecular bone): 0.164 ± 0.043 # 1/mm
Tb.Pf ([1]; femur trabecular bone): 37.43 ± 2.48 1/mm
Tb.Sp ([1]; femur trabecular bone): 0.702 ± 0.100 # μm
Tb.Th ([1]; femur trabecular bone): 0.0468 ± 0.0014 μm
inhibition of osteoclast differentiation (anti-osteoclastogenic properties) [2]: more potent than AlenP
time for kidneys to excrete the amount not taken up by bone tissues [3]: ≤ 24 h
elimination from bone tissue ([3]; humans): up to 12 years

CCNC(=O)[C@H]1O[C@@H](n2cnc3c(N)nc(NCCc4ccc(CCC(=O)O)cc4)nc32)[C@H](O)[C@@H]1O [CGS21680, 2-[p-(2-carboxyethyl)-phenethylamino]-5'-N-ethylcarboxamido adenosine]
effect on bone density in the affected areas [4]: none of the doses tested <10mg/kg/week had any effect on bone density

Nc1nc(NCCc2ccc(O)cc2)nc2nc(-c3ccco3)nn12 [ZM21385]
effect on osteoclast differentiation [5]: increases osteoclast differentiation
